The source of these data is PMC6152123, “Sites for Dynamic Protein-Carbohydrate Interactions of O- and C-Linked Mannosides on the E. coli FimH Adhesin” (Molecules : A Journal of Synthetic Chemistry and Natural …, 2017).

Broadly, the Kd is a measure of binding affinity in units of concentration.

Test [1] concerns the target T1, FimH lectin domain (Escherichia coli, UniProt P08191). Briefly: biochemical. In kind it is binding, E. coli strain J96.
The target in test [2] is T1, FimH lectin domain. The following applies: read-out: Kd SPR; solution affinity by SPR; cited from earlier work. (SPR reads the build-up and loss of mass on a sensor chip optically.)
A further test deals with FimH. The following applies: Tables 1-3; read-out: Kd ITC (converted); cited from earlier work.
Test [3] addresses T1, FimH lectin domain. Briefly: SPR direct binding of FimH to receptor immobilized on sensor chip (steady state affinity). Also noted: species or system E. coli strain J96. The following applies: Ss: steady state affinity (Kd), direct binding of FimH to 5b coupled to CM5 sensor chip.
Experimental: The equilibrium dissociation constant Kd of FimH for the mannose derivatives was determined using a competition assay in solution. In this assay, the mannose derivatives compete with an immobilized Fab fragment from the monoclonal anti-FimH antibody 1C10 or with an immobilized 8-aminooctyl α-D-mannopyranoside (5b) for FimH binding, as described earlier [34]. The global kinetic constants ka, kd and Rmax of the FimH-ligand interaction of binding were fitted using the BiaEval software.

Each structure is given as a SMILES string. Several values for one entry are separate records, joined by “and”; a condition that tells them apart may be missing. Equal values may be shown once. Read-outs that look alike come from different tables or passages of the source.

T1 sequence (P08191 22-179 limits assumed): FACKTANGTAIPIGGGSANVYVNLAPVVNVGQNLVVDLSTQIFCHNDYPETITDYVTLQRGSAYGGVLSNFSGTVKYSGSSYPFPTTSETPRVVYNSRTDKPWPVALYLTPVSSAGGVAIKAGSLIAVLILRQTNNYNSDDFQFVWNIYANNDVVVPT

Turning to `CCCCCCCO[C@H]1O[C@H](CO)[C@@H](O)[C@H](O)[C@@H]1O` [Compound 5, heptyl α-D-mannopyranoside, reference compound], the “KA” value on FimH lectin domain [1] (Figure S19, fit of solution affinity model to inhibition curve) is 231691100 M⁻¹. Also, the Kd on FimH lectin domain [1] (KD(M), Figure S19, fit of solution affinity model to inhibition curve) was 4.32e-09 M; at FimH lectin domain [2], 0.0043 ± 0.0003 µM; on FimH, 0.0073 µM.

`NCCCCCCCCO[C@H]1O[C@H](CO)[C@@H](O)[C@H](O)[C@@H]1O` [Compound 5b, 8-aminooctyl α-D-mannopyranoside]: the dissociation constant (Kd) on FimH lectin domain [3] was 0.0169 µM and 0.017 µM; at FimH lectin domain [1] (Kd SPR (nM), solution affinity by SPR competition, Tables 1-3) it was 1.8e-08 ± 4e-10 M.
